Measurements reported in ChEMBL document CHEMBL2073904, “Effect of levothyroxine administration on intestinal P-glycoprotein expression: consequences for drug disposition” (Clin Pharmacol Ther, 2002).

Key:
[1] = molecular target: T1, ATP-dependent translocase ABCB1 (Homo sapiens, UniProt P08183); assay: TP_TRANSPORTER: immunohistochemistry in vivo, duodenum; format: functional, organism-based
[2] = molecular target: T1, ATP-dependent translocase ABCB1; assay: TP_TRANSPORTER: RT-PCR in vivo, duodenal; format: functional, organism-based, Duodenum

T1 sequence (P08183 whole entry): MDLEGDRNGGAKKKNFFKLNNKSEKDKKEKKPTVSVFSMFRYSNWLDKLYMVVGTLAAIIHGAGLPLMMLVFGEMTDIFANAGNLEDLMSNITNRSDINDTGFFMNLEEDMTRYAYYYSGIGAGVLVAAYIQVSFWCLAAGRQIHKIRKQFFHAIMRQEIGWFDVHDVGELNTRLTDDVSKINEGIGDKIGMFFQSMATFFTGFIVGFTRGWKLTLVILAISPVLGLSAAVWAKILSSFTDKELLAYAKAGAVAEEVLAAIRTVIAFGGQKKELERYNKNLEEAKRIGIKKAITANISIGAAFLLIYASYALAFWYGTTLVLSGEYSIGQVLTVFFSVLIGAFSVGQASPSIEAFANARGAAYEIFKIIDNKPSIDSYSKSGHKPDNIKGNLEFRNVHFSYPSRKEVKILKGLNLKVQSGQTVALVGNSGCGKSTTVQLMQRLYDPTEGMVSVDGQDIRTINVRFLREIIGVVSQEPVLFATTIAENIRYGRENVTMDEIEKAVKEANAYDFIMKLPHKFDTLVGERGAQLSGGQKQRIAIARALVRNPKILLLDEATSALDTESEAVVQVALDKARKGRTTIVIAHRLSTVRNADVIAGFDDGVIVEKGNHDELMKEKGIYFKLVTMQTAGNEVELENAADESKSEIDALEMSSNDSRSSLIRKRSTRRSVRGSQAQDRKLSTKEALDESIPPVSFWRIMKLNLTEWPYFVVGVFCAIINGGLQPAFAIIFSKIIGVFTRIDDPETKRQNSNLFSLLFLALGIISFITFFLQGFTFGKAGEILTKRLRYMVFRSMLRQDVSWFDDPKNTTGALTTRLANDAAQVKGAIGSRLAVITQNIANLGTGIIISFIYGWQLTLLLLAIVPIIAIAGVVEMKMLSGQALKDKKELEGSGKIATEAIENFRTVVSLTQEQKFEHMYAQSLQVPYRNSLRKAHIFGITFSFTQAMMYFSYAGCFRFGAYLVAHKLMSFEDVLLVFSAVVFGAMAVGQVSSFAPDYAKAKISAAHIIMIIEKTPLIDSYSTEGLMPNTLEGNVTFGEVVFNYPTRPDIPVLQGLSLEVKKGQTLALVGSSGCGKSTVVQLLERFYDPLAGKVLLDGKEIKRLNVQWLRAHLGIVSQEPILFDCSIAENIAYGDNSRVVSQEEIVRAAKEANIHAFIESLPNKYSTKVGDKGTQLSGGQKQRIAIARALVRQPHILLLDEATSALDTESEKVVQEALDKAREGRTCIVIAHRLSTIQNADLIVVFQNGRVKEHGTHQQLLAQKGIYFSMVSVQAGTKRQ

Question: With `N[C@@H](Cc1cc(I)c(Oc2cc(I)c(O)c(I)c2)c(I)c1)C(=O)O` [LEVOTHYROXINE] as the compound, how does the Activity [1] read?
Answer: inducer [+]

Question: What about the Activity [2] of the same compound?
Answer: inducer [+]
